Laboratory results taken from patent US7915268B2, “8-substituted 2-(benzimidazolyl)purine derivatives for immunosuppression” (Wyeth LLC, priority 2006, dated 2011).
pIC50: −log10 of the molar value.

Test system: heart transplantation
Test: not given
Details: murine heart transplantation; cited from earlier work

Compound	animal survival
C[C@@H]1CCN(C(=O)CC#N)C[C@@H]1N(C)c1ncnc2[nH]ccc12 [CP-690,550]	prolong animal survival

Test system: IFN-γ production
Test: IL-2-Induced IFN-γ Production in the Mouse
Type: in vivo
Details: oral dose at 30 mg/kg, BALB/c mice, serum IFN-γ
Method: IL-2-Induced IFN-γ Production in the Mouse
Administration of IL-2 leads to an increase in serum IFN-γ in the mouse due to NK secretion of the cytokine (Thornton S, Kuhn K A, Finkelman F D and Hirsch R. NK cells secrete high levels of IFN-γ in response to in vivo administration of IL-2. Eur J Immunol 2001 31:3355-3360). The experiment is carried out essentially according to the protocol in Thornton et al. and the test compounds are administered in order to determine the level of inhibition attained. In summary, female BALB/c mice are fasted for 12-18 hours before a study but have free access to water at all times. Test compounds are administered by gavage one hour before intraperitoneal injection of IL-2 and capture antibody. At termination of the studies, the mice are sacrificed by carbon dioxide inhalation, terminal blood samples are collected by cardiac puncture and serum is generated. Serum is stored frozen until assayed for IFN-γ, as described by the kit manufacturer (BD Pharmingen™, San Diego, Calif.).

Compound	inhibit IFN-γ production [%]
N#Cc1ccc2ncn(-c3ncc4nc(-c5cncnc5)n(C5CCOc6c(F)ccc(F)c65)c4n3)c2c1 (stereo not shown) [Example 6]	93
N#Cc1ccc2ncn(-c3ncc4nc(-c5cncnc5)n([C@@H]5CCOc6c(F)cccc65)c4n3)c2c1 [Example 13, 3-(9-((R)-8-fluorochroman-4-yl)-8-(pyrimidin-5-yl)-9H-purin-2-yl)-3H-benzo[d]imidazole-5-carbonitrile]	76

Test system: GVHD
Test: not given
Details: in vivo; cited from earlier work

Compound	severity of GVHD
COc1cc2ncnc(Nc3ccc(O)cc3)c2cc1OC [WHI-P131]	attenuate the severity of GVHD

Test system: spontaneous autoimmune diabetes
Test: not given
Details: NOD mouse; cited from earlier work

Compound	spontaneous autoimmune diabetes development
COc1cc2ncnc(Nc3ccc(O)cc3)c2cc1OC [WHI-P131]	prevent spontaneous autoimmune diabetes development

Target: T1, Jak3 (Homo sapiens, UniProt P52333)
T1 construct: catalytic domain of Jak3 (508aa to 1124aa); made in house; host or cells: Sf9 insect cells (baculovirus, pFastBac 1)
T1 sequence (P52333 508-1124): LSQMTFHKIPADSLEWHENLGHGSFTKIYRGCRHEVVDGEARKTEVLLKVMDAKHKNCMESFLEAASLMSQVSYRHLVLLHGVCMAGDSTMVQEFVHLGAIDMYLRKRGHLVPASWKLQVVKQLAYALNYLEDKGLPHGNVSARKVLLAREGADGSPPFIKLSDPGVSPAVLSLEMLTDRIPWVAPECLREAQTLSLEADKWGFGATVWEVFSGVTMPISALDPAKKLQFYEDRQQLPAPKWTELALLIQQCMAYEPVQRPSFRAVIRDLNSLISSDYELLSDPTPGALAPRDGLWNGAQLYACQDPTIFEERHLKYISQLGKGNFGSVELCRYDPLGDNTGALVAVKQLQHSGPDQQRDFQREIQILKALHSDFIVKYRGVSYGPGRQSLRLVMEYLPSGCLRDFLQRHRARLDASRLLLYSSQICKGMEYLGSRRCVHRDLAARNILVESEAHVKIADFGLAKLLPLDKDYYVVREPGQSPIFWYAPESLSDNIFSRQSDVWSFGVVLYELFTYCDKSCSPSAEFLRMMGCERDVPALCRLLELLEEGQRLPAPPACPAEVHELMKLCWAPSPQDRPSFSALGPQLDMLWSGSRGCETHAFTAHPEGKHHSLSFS
Test: Jak3 Kinase Assay (HTRF, GST-Jak3 catalytic domain)
Type: biochemical
Details: 1 μM ATP, 60-min incubation, read-out: Jak 3 (Converted)
Method: Human Jak3 cDNA was amplified by PCR. A fragment encoding the catalytic domain of Jak3 (508aa to 1124aa) was ligated with GST at 5′ end. This fused GST-Jak3 DNA fragment was cloned into the EcoRI site of the donor plasmid pFastBac 1 (Life Technologies #10359-016). The transformation, transposition, and transfection of insect cells (Sf9) were performed according to the manufacture's instructions. The cell lysate containing recombinant GST-Jak3 was used in the kinase assay. Anti-GST antibody (10 μg/ml, Sigma #G1417) was coated onto a 384-well plate at 4° C. overnight. Cell lysate containing GST-Jak3 (1:100 dilution) was added to the anti-GST coated plates, and GST-Jak3 was captured by immobilized anti-GST antibody. Testing compounds and substrate mix (50 mM HEPES, pH 7, 0.5 mM Na3VO4, 25 mM MgCl2, 1 mM DTT, 0.005% BSA, 1 μM ATP, and 4.5 μg/ml biotinyl poly-Glu, Ala, Tyr) were added to the plate to initiate the reaction. After a 60-min incubation, the reaction was stopped by 4 mM EDTA, and phosphorylation of biotinyl poly-Glu, Ala, Tyr was detected using 17 μg/ml Cy5-streptavidin (Amersham, #PA92005) and 2.7 μg/ml Europium-conjugated anti-phosphotyrosine antibody (PerkinElmer #AD0069) using homogeneous time-resolved fluorescence (HTRF) technology.

pIC50	Compound
> 7.00	N#Cc1ccc2ncn(-c3ncc4nc(-c5cncnc5)n(C5CCOc6c(F)ccc(F)c65)c4n3)c2c1 (stereo not shown) [Example 6]
> 7.00	N#Cc1ccc2ncn(-c3ncc4nc(-c5cnc(O)nc5O)n(C5CCOCC5)c4n3)c2c1 [Example 10]
> 7.00	N#Cc1ccc2ncn(-c3ncc4nc(-c5cncnc5)n([C@@H]5CCOc6c(F)cccc65)c4n3)c2c1 [Example 13, 3-(9-((R)-8-fluorochroman-4-yl)-8-(pyrimidin-5-yl)-9H-purin-2-yl)-3H-benzo[d]imidazole-5-carbonitrile]
6.00 to 7.00	Fc1ccc2ncn(-c3ncc4nc(-c5cccc(Cl)c5)n(C5CCOCC5)c4n3)c2c1 [Example 60]
> 7.00	COc1cccc(Nc2nc3cnc(-n4cnc5ccc(C#N)cc54)nc3n2C2CCOCC2)c1 [Example 108]
6.00 to 7.00	COc1ccccc1-c1nc2cnc(-n3cnc4ccc(C#N)cc43)nc2n1C1CCOCC1 [Example 18]
> 7.00	Fc1ccc2ncn(-c3ncc4nc(-c5cccnc5)n(C5CCOCC5)c4n3)c2c1 [Example 37]
6.00 to 7.00	Cc1ccc([C@@H](C)n2c(C)nc3cnc(-n4cnc5ccc(C#N)cc54)nc32)o1 [Example 99]
> 7.00	Cc1nc2cnc(-n3cnc4ccc(C#N)cc43)nc2n1[C@@H]1CC[C@@H](O)c2ccccc21 [Example 100, 3-(9-((1R,4R)-4-Hydroxy-1,2,3,4-tetrahydronaphthalen-1-yl)-8-methyl-9H-purin-2-yl)-3H-benzo[d]imidazole-5-carbonitrile]
> 7.00	CC(=O)Nc1ccc(-c2nc3cnc(-n4cnc5ccc(C#N)cc54)nc3n2C2CCOCC2)cc1 [Example 7]
< 6.00	N#Cc1cccc(Nc2nc3cnc(-n4cnc5ccc(Cl)cc54)nc3n2C2CCOCC2)c1 [Example 110]
6.00 to 7.00	Fc1ccc2ncn(-c3ncc4nc(-c5ccc(Br)cn5)n(C5CCOCC5)c4n3)c2c1 [Example 64]
> 7.00	Cc1nc2cnc(-n3cnc4ccc(Cl)cc43)nc2n1[C@H](C)C(=O)NCC(F)(F)F [Example 92, (2R)-2-(2-(6-chloro-1H-benzo[d]imidazol-1-yl)-8-methyl-9H-purin-9-yl)-N-(2,2,2-trifluoroethyl)propanamide]
6.00 to 7.00	Cc1ccccc1-c1nc2cnc(-n3cnc4ccc(C#N)cc43)nc2n1C1CCOCC1 [Example 3]
> 7.00	CN(C)c1ncc(-c2nc3cnc(-n4cnc5ccc(C#N)cc54)nc3n2C2CCOCC2)cn1 [Example 17]
> 7.00	Oc1cccc(-c2nc3cnc(-n4cnc5ccc(F)cc54)nc3n2C2CCOCC2)c1 [Example 71]
> 7.00	N#Cc1ccc2ncn(-c3ncc4nc(Nc5ccc(S(N)(=O)=O)cc5)n(C5CCOCC5)c4n3)c2c1 [Example 105, 4-(2-(6-cyano-1H-benzo[d]imidazol-1-yl)-9-(tetrahydro-2H-pyran-4-yl)-9H-purin-8-ylamino)benzenesulfonamide]
> 7.00	N#Cc1ccc2ncn(-c3ncc4nc(Cl)n(C5CCOCC5)c4n3)c2c1 [Example 101]
6.00 to 7.00	CC(C)Sc1nccc(-c2nc3cnc(-n4cnc5ccc(C#N)cc54)nc3n2[C@@H]2CCOc3c(F)ccc(F)c32)n1 [Example 20]
> 7.00	N#Cc1ccc2ncn(-c3ncc4nc(-c5cccnc5)n([C@@H]5CCOc6c(F)cccc65)c4n3)c2c1 [Example 5]
> 7.00	Cn1cncc1-c1nc2cnc(-n3cnc4ccc(F)cc43)nc2n1C1CCOCC1 [Example 39]
> 7.00	N#Cc1ccc2ncn(-c3ncc4nc(-c5cncnc5)n(C5CCOCC5)c4n3)c2c1 [Example 1]
> 7.00	N#Cc1ccc2ncn(-c3ncc4nc(NCCN5CCOCC5)n(C5CCOCC5)c4n3)c2c1 [Example 95]
> 7.00	Fc1ccc2ncn(-c3ncc4nc(-c5ccc(F)nc5)n(C5CCOCC5)c4n3)c2c1 [Example 46]
6.00 to 7.00	Fc1ccc2ncn(-c3ncc4nc(-c5cnc[nH]5)n(C5CCOCC5)c4n3)c2c1 [Example 30]

Test system: kidney transplantation
Test: not given
Details: primate kidney transplantation; cited from earlier work

Compound	animal survival
C[C@@H]1CCN(C(=O)CC#N)C[C@@H]1N(C)c1ncnc2[nH]ccc12 [CP-690,550]	prolong animal survival
